Each structure is given as a SMILES string. Values after ≈ are worked out from the molar mass of the structure shown.

For experiment [1], the system named is Citrobacter freundii 1982. In words: Antibacterial activity in vitro (MIC) against Citrobacter freundii 1982. It counts as cell-based. The conditions noted are these: read-out: MIC C. freundii 1982. The method, then:
(§1) The minimum inhibitory concentration in vitro (MIC in μg/ml) of a compound of formula I against Citrobacter freundii 1982 and Staphylococcus aureus 887 is measured and compiled in Table 2.

Experiment [2] has as its system Staphylococcus aureus 887. In words: Antibacterial activity in vitro (MIC) against Staphylococcus aureus 887. The format is cell-based. Conditions: read-out: MIC S. aureus 887. The method, then: as §1

What is called MIC is the smallest concentration in the dilution series that meets the test's criterion for growth inhibition. On to `CC(=O)N1C[C@H]2CC(/C=C/c3cccc[n+]3CC(N)=O)=C(C(=O)[O-])N3C(=O)[C@@H]1[C@@H]23` [Example 72, (E)-(1aS,3aR,6bR)-2-Acetyl-5-[2-(1-carbamoylmethyl-pyridin-1-ium-2-yl)-vinyl]-1-oxo-1a,2,3,3a,4,6b-hexahydro-1H-2,6a-diaza-cyclobut[cd]indene-6-carboxylate], for which the MIC in experiment [1] and in experiment [2] was 64 µg/mL (≈ 161 µM) throughout.

Values taken from patent US6218379A, “Tricyclic carbacephems” (Hoffmann-la Roche Inc., priority 1996, dated 2001).
